Measurements published in paper PMC8954540, “A New Class of PSMA-617-Based Hybrid Molecules for Preoperative Imaging and Intraoperative Fluorescence Navigation of Prostate Cancer” (Pharmaceuticals, 2022).
Starred links: 1 amine or outer side, 2 acyl side, 3 side chain; linkers in the order of their positions; H or OH if unused. Non-standard residues stand in square brackets, D forms with d. Residues, ends and D or L forms follow the SMILES beside them. *: point of attachment. FITC = O=C1OC2(c3ccc(O)cc3Oc3cc(O)ccc32)c2ccc(NC(=S)*)cc21; DOTA = O=C(O)CN1CCN(CC(=O)O)CCN(CC(=O)*)CCN(CC(=O)O)CC1; X2 = O=C(O)CCC(NC(=O)NC(CCCCN*)C(=O)O)C(=O)O; 2Nal = N[CH](Cc1ccc2ccccc2c1)C(=O)O; X1 = O=C(C1CCC(CN[*:1])CC1)[*:2]

Experiments:
[1] = parameters: method as in PMID 29752180; conditions: twelve weeks after the first dose; cited from earlier work
[2] = parameters: method as in PMID 34161051; conditions: 831 patients; cited from earlier work
[3] = target: T1, PSMA (Homo sapiens, UniProt Q04609); experiment: Competitive cell binding assay (radioligand 68Ga-PSMA-10); conditions: free ligands, mean ± SD, n = 3; for Ki: Ki=IC50/(1+cradioligand/Kd); for IC50: radioligand 68Ga-PSMA-10, 0.75 nmol/L
T1 construct: LNCaP cells (CRL-1740; ATCC; PSMA-positive); host or cells: LNCaP cells
T1 sequence (Q04609 whole entry): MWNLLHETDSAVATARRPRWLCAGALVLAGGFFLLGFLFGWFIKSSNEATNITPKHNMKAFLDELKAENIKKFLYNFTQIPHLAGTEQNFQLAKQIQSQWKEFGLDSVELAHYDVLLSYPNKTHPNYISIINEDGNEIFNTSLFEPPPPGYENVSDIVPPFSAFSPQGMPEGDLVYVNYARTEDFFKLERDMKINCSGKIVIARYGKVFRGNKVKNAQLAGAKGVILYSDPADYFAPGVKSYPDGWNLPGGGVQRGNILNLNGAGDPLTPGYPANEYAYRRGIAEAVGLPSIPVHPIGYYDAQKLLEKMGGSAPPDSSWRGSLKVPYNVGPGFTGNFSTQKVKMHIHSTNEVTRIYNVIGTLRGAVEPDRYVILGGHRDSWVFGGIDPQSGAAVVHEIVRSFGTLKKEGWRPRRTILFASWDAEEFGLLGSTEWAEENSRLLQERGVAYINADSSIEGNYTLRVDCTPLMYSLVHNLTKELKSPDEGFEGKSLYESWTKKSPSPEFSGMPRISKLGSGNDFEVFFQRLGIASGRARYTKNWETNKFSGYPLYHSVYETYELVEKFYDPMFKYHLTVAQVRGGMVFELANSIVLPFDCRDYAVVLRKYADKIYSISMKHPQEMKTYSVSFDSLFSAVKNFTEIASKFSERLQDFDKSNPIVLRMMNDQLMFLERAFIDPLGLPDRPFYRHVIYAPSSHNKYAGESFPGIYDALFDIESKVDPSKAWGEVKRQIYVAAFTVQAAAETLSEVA
Experimental: (§1) LNCaP cells (CRL-1740; ATCC; PSMA-positive) and PC-3 cells (CRL-1435; ATCC; PSMA-negative) were cultured in RPMI medium (Thermo Fisher Scientific, Waltham, MA, USA) supplemented with 10% fetal calf serum and 2 mmol/L L-glutamine (all from (Thermo Fisher Scientific, Waltham, MA, USA) ) at 37 °C in humidified air with 5% CO2. Cells were harvested using trypsin-ethylenediaminetetraacetic acid (trypsin-EDTA; 0.25% trypsin, 0.02% EDTA, Invitrogen, Waltham, MA, USA). Cell line authentication was regularly performed. Binding affinities and internalization profiles of the ^68Ga-labeled compounds were determined in competitive cell binding assays and internalization experiments as described previously.

[4] = system: LNCaP cells; experiment: Specific cell surface binding and internalization of 68Ga-labeled compounds; type: cell-based; conditions: 68Ga-labeled compounds; blockage with 500 µmol/L 2-PMPA; mean ± SD, n = 3
Experimental: as §1

[5] = Lipophilicity, logD at pH 7.4 in n-octanol/PBS; type: physicochemical; conditions: 68Ga-labeled ligand
Experimental: The synthesis was performed according to previously published protocols. Details on synthesis and analytical data of the compounds are provided in the Supplementary Materials (Compound Synthesis and Analytical Characterization). […] Using 30% NaOH (Sigma-Aldrich, Darmstadt, Germany) and 10% NaOH (Sigma-Aldrich, Darmstadt, Germany), the pH was adjusted to 3.8. The reaction mixture was incubated at 98 °C for 5–10 min. The radiochemical yield was analyzed by reversed-phase high-performance liquid chromatography (RP-HPLC) or reversed-phase thin-layer chromatography (RP-TLC, 60 RP-18 F254S, Sigma-Aldrich, Darmstadt, Germany) with 0.5 M ammonium acetate/methanol (1:1) as the mobile phase. The lipophilicity of the ^68Ga-labeled compounds was determined using the 2-phase system n-octanol and PBS.

[6] = system: LNCaP cells; parameters: method as in PMID 26878194; conditions: cited from earlier work
[7] = parameters: method as in PMID 25883127; conditions: n-octanol/PBS; cited from earlier work
[8] = system: LNCaP-tumor bearing BALB/c nu/nu mice; conditions: cited from earlier work; for tumor enhancement after dye conjugation: compared with PSMA-927
[9] = parameters: method as in PMID 16194449; conditions: free dye; cited from earlier work

Compound | Ki [3] [nM] | IC50 [3] [nM] | Specifically Cell Surface Bound [4] [%AR/10^5 Cells] | Specifically Internalized [4] [%AR/10^5 Cells] | Lipophilicity logDpH 7.4 n-octanol/PBS [5] | also measured
O=C([O-])CN1CCN(CC(=O)[O-])CCN(CC(=O)NCC2CCC(C(=O)NC(Cc3ccc4ccccc4c3)C(=O)NCCCCC(NC(=O)NC(CCC(=O)O)C(=O)O)C(=O)O)CC2)CCN(CC(=O)[O-])CC1.[177Lu+3] (stereo not drawn) [[^177Lu]Lu-PSMA-617] |  |  |  |  |  | patients with PSA decline greater than 50% [1]: half of the patients; patients with PSA decline greater than 80% [1]: 27%; overall survival [2]: significantly improves overall survival; tolerability of the treatment regimen [2]: very well-tolerated
O=C(O)CCC(NC(=O)NC(CCCCNC(=O)C(Cc1ccc2ccccc2c1)NC(=O)C1CCC(CNC(=O)C(CCCCNC(=O)CN2CCN(CC(=O)O)CCN(CC(=O)O)CCN(CC(=O)O)CC2)NC(=S)Nc2ccc3c(c2)C(=O)OC32c3ccc(O)cc3Oc3cc(O)ccc32)CC1)C(=O)O)C(=O)O (stereo not drawn) [PSMA-924, Glu-urea-Lys-2-Nal-Chx-Lys(DOTA)-Fluorescein] | 3.87 ± 1.76 | 4.64 ± 1.23 | 1.11 ± 0.81 | 1.11 ± 0.94 | -2.38 ± 0.07 | 
O=C([O-])CN1CCN(CC(=O)[O-])CCN(CC(=O)NCC2CCC(C(=O)NC(Cc3ccc4ccccc4c3)C(=O)NCCCCC(NC(=O)NC(CCC(=O)O)C(=O)O)C(=O)O)CC2)CCN(CC(=O)[O-])CC1.[68Ga+3] (stereo not drawn) [[^68Ga]Ga-PSMA-617] |  |  |  |  |  | cell surface binding [6]: 11.40 ± 6.60 %ID/10^5 LNCaP cells; specific internalization [6]: 16.17 ± 3.66 %ID/10^5 LNCaP cells; logDpH 7.4 [7]: –2.00; tumor uptake ([8]; 1 h p.i.): 8.47 ± 4.09 % ID/g
[^68Ga]Ga-Glu-urea-Lys-HBED-CC-IRDye800CW |  |  |  |  |  | tumor enhancement after dye conjugation [8]: significantly higher tumor enhancement
O=C(O)CCC(NC(=O)NC(CCCCNC(=O)C(Cc1ccc2ccccc2c1)NC(=O)C1CCC(CNC(=O)C(CCCCNC(=O)CN2CCN(CC(=O)O)CCN(CC(=O)O)CCN(CC(=O)O)CC2)NC(=O)C(CCC(=O)O)NC(=O)C(CCC(=O)O)NC(=S)Nc2ccc3c(c2)C(=O)OC32c3ccc(O)cc3Oc3cc(O)ccc32)CC1)C(=O)O)C(=O)O (stereo not drawn) [PSMA-926, Glu-urea-Lys-2-Nal-Chx-Lys(DOTA)-E2-Fluorescein] ({FITC}-EEK(DOTA)[X1][2Nal]-X2; configuration not given here) | 7.16 ± 2.63 | 8.59 ± 2.57 | 10.12 ± 4.85 | 11.86 ± 5.31 | -2.13 ± 0.03 | 
O=C(O)CCC(NC(=O)NC(CCCCNC(=O)C(Cc1ccc2ccccc2c1)NC(=O)C1CCC(CNC(=O)C(CCCCNC(=S)Nc2ccc3c(c2)C(=O)OC32c3ccc(O)cc3Oc3cc(O)ccc32)NC(=O)CN2CCN(CC(=O)O)CCN(CC(=O)O)CCN(CC(=O)O)CC2)CC1)C(=O)O)C(=O)O (stereo not drawn) [PSMA-921, Glu-urea-Lys-2-Nal-Chx-Lys(Fluorescein)-DOTA] | 4.03 ± 0.95 | 4.83 ± 0.93 | 7.06 ± 3.32 | 15.82 ± 6.18 | -2.36 ± 0.03 | 
[^68Ga]Ga-Glu-urea-Lys-(HE)3-HBED-CC-IRDye800CW |  |  |  |  |  | tumor enhancement after dye conjugation [8]: significantly higher tumor enhancement
O=C(O)CCC(NC(=O)NC(CCCCNC(=O)C(Cc1ccc2ccccc2c1)NC(=O)C1CCC(CNC(=O)C(CCCCNC(=S)Nc2ccc3c(c2)C(=O)OC32c3ccc(O)cc3Oc3cc(O)ccc32)NC(=O)C(CCC(=O)O)NC(=O)CN2CCN(CC(=O)O)CCN(CC(=O)O)CCN(CC(=O)O)CC2)CC1)C(=O)O)C(=O)O (stereo not drawn) [PSMA-922, Glu-urea-Lys-2-Nal-Chx-Lys(Fluorescein)-E1-DOTA] | 5.78 ± 1.32 | 6.93 ± 1.29 | 6.33 ± 1.53 | 13.74 ± 5.75 | -2.07 ± 0.06 | 
O=C(O)CCC(NC(=O)NC(CCCCNC(=O)C(Cc1ccc2ccccc2c1)NC(=O)C1CCC(CNC(=O)C(CCCCNC(=O)CN2CCN(CC(=O)O)CCN(CC(=O)O)CCN(CC(=O)O)CC2)NC(=O)C(CCC(=O)O)NC(=S)Nc2ccc3c(c2)C(=O)OC32c3ccc(O)cc3Oc3cc(O)ccc32)CC1)C(=O)O)C(=O)O (stereo not drawn) [PSMA-925, Glu-urea-Lys-2-Nal-Chx-Lys(DOTA)-E1- Fluorescein] | 6.77 ± 3.66 | 8.12 ± 3.59 | 2.67 ± 0.95 | 3.03 ± 2.17 | -2.05 ± 0.02 | 
O=C(O)CCC(NC(=O)NC(CCCCNC(=O)C(Cc1ccc2ccccc2c1)NC(=O)C1CCC(CNC(=O)C(CCCCNC(=S)Nc2ccc3c(c2)C(=O)OC32c3ccc(O)cc3Oc3cc(O)ccc32)NC(=O)C(CCC(=O)O)NC(=O)C(CCC(=O)O)NC(=O)CN2CCN(CC(=O)O)CCN(CC(=O)O)CCN(CC(=O)O)CC2)CC1)C(=O)O)C(=O)O (stereo not drawn) [PSMA-923, Glu-urea-Lys-2-Nal-Chx-Lys(Fluorescein)-E2-DOTA] ({DOTA}-EEK(FITC)[X1][2Nal]-X2; configuration not given here) | 5.95 ± 1.99 | 7.14 ± 1.95 | 9.82 ± 0.67 | 21.55 ± 9.24 | -2.16 ± 0.04 | 
CC1(C)C(=CC=C2CCCC(C=CC3=[N+](CCCCCC(=O)[O-])c4ccc(S(=O)(=O)[O-])cc4C3(C)C)=C2Oc2ccc(S(=O)(=O)[O-])cc2)N(CCCCS(=O)(=O)[O-])c2ccc(S(=O)(=O)[O-])cc21.[Na+].[Na+].[Na+].[Na+] [IRDye800CW] |  |  |  |  |  | absorption maximum [9]: 775 nm; emission maximum [9]: 796 nm
